Measured values taken from patent US12492373B2, “Production method for nerve tissue” (Racthera Co., Ltd., priority 2014, dated 2025).

System: human iPS cells (Ff-I01 strain)
Test: Neural tissue / neuroepithelium formation in cell aggregates, bright field observation
Assay type: cell-based
Conditions: StemFit AK03N; SAG 300 nM for 24, 48, 72 or 96 hr in step 1, SAG 500 nM in step 2, BMP4 1.5 nM; day 19
Description: At the time of the start of suspension culturing (day 0 after the start of suspension culturing, […]), Y27632 ([…]) were added to the above serum-free medium (FIG. 22). By day 2 after the start of suspension culturing, a cell aggregate was formed (step 2 completed, step 3 start) under any conditions. On day 3 or later from the start of suspension culturing, BMP4 was added under 3 conditions including the following conditions 1-3. • Condition 1: (+BMP4 addition once) On day 3 of suspension culturing, a medium (50 μl) free of Y27632 and SAG, and containing human recombinant BMP4 (manufactured by R&D) was added such that the final concentration of exogenous human recombinant BMP4 was 1.5 nM (55 ng/ml). On day 6 or later from the start of suspension culturing, a half amount of the medium was changed to a serum-free medium free of Y27632, SAG and human recombinant BMP4. • Condition 2: (+BMP4 addition twice) On day 3 of suspension culturing, a medium (50 μl) free of Y27632, SAG and containing human recombinant BMP4 (manufactured by R&D) was added such that the final concentration of exogenous human recombinant BMP4 was 1.5 nM (55 ng/ml). On day 6 from the start of suspension culturing, 50 μl of the medium was discarded, and 50 μl of a medium free of Y27632 and SAG and containing human recombinant BMP4 (manufactured by R&D) was added to maintain the final concentration of exogenous human recombinant BMP4 at 1.5 nM (55 ng/ml). On day 9 or later from the start of suspension culturing, a half amount of the medium was changed with a serum-free medium free of Y27632, SAG, and human recombinant BMP4. • Condition 3: (+BMP4 addition three times) On day 3 of suspension culturing, a medium (50 μl) free of Y27632, SAG and containing human recombinant BMP4 (manufactured by R&D) was added such that the final concentration of exogenous human recombinant BMP4 was 1.5 nM (55 ng/ml). On days 6 and 9 from the start of suspension culturing, 50 μl of the medium was discarded, and 50 μl of a medium free of Y27632 and SAG and containing human recombinant BMP4 (manufactured by R&D) was added to maintain the final concentration of exogenous human recombinant BMP4 at 1.5 nM (55 ng/ml). On day 12 or later from the start of suspension culturing, a half amount of the medium was changed with a serum-free medium free of Y27632, SAG and human recombinant BMP4. […]
On day 3 after the start of suspension culturing, a medium (50 μl) free of Y27632 and SAG, and containing human recombinant BMP4 (manufactured by R&D) was added such that the final concentration of exogenous human recombinant BMP4 was 1.5 nM (55 ng/ml) or 5 nM (183 ng/ml). […]

CNC1CCC(N(Cc2cccc(-c3ccncc3)c2)C(=O)c2sc3ccccc3c2Cl)CC1 (stereo not shown) [SAG]
cell aggregate growth and neuroepithelium formation: neuroepithelium can be formed efficiently
